# From patent publication US20260285850A1, “SUBSTITUTED OXAZOLIDINONES AND IMIDAZOLINONES AS HERBICIDES” (FMC CORPORATION, priority 2023, published 2026)
# Assays:
# Type in all cases: in vivo
# [1] = system: green foxtail (Setaria viridis); assay: Test A preemergence soil spray, visual injury rating 0-100; conditions: 10 days
# Procedure, shortened: (§1)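 Scale 0–100 (no effect to complete control), visual, versus untreated controls, read 10 days after application. Application: preemergence directed spray onto seeded loam–sand soil, or postemergence to young plants; formulation in non-phytotoxic solvent with surfactant.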
# [2] = system: oat, wild (wild oat, Avena fatua); assay: as above; conditions: 10 days
# Procedure, shortened: as §1
# [3] = system: ryegrass, Italian (italian ryegrass, Lolium multiflorum); assay: as above; conditions: 10 days
# Procedure, shortened: as §1
# kochia (Bassia scoparia) [4] = assay: as above; conditions: 10 days
# Procedure, shortened: as §1
# corn (Zea mays) [5] = assay: as above; conditions: 10 days
# Procedure, shortened: as §1
# [6] = system: blackgrass (Alopecurus myosuroides); assay: as above; conditions: 10 days
# Procedure, shortened: as §1
# [7] = system: barnyardgrass (Echinochloa crus-galli); assay: as above; conditions: 10 days
# Procedure, shortened: as §1
# [8] = system: wheat (Triticum aestivum); assay: as above; conditions: 10 days
# Procedure, shortened: as §1
# soybean (Glycine max) [9] = assay: as above; conditions: 10 days
# Procedure, shortened: as §1
# [10] = system: ragweed (common ragweed, Ambrosia artemisiifolia); assay: as above; conditions: 10 days
# Procedure, shortened: as §1
# [11] = system: palmer (palmer amaranth, palmer pigweed, Amaranthus palmeri); assay: as above; conditions: 10 days
# Procedure, shortened: as §1
# [12] = system: green foxtail (Setaria viridis); assay: Test A postemergence application, visual injury rating 0-100
# Procedure, shortened: as §1
# [13] = system: oat, wild (wild oat, Avena fatua); assay: as above
# Procedure, shortened: as §1
# [14] = system: ryegrass, Italian (italian ryegrass, Lolium multiflorum); assay: as above
# Procedure, shortened: as §1
# kochia (Bassia scoparia) [15] = assay: as above
# Procedure, shortened: as §1
# corn (Zea mays) [16] = assay: as above
# Procedure, shortened: as §1
# [17] = system: horseweed (Erigeron canadensis); assay: as above
# Procedure, shortened: as §1
# [18] = system: blackgrass (Alopecurus myosuroides); assay: as above
# Procedure, shortened: as §1
# [19] = system: barnyardgrass (Echinochloa crus-galli); assay: as above
# Procedure, shortened: as §1
# [20] = system: wheat (Triticum aestivum); assay: as above
# Procedure, shortened: as §1
# soybean (Glycine max) [21] = assay: as above
# Procedure, shortened: as §1
# [22] = system: ragweed (common ragweed, Ambrosia artemisiifolia); assay: as above
# Procedure, shortened: as §1
# [23] = system: galium (catchweed bedstraw, Galium aparine); assay: as above; conditions: 62 g ai/ha, postemergence, 10 days, 0 = no effect, 100 = complete control
# Procedure, shortened: as §1
# [24] = system: palmer (palmer amaranth, palmer pigweed, Amaranthus palmeri); assay: as above
# Procedure, shortened: as §1
# [25] = system: sedge, umbrella (small-flower umbrella sedge, Cyperus difformis); assay: Test B flooded paddy test, visual plant response rating 0-100; conditions: 250 g ai/ha, Flood, applied to paddy water, evaluated after 13 days
# Procedure, shortened: (§2)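 Paddy-water application: test compounds went directly into water flooded 3 cm above the soil surface, with plants at 2 leaves. After a 13-day greenhouse period, responses were judged by eye relative to controls; a dash marks an untested entry.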
# [26] = system: barnyardgrass (Echinochloa crusgalli); assay: as above; conditions: 250 g ai/ha, Flood, applied to paddy water, evaluated after 13 days
# Procedure, shortened: as §2
# [27] = system: ducksalad (Heteranthera limosa); assay: as above; conditions: 250 g ai/ha, Flood, applied to paddy water, evaluated after 13 days
# Procedure, shortened: as §2
# rice (Oryza sativa) = assay: as above; conditions: 250 g ai/ha, Flood, applied to paddy water, evaluated after 13 days
# Procedure, shortened: as §2
# [28] = 62 g ai/ha, 0 = no effect, 100 = complete control
# [29] = 62 g ai/ha, postemergence, 10 days, 0 = no effect, 100 = complete control
# [30] = Postemergence, 16 g ai/ha, greenhouse 10 days, 0 no effect, 100 complete control
smiles,measurement,setting,value
CC1(C(=O)NC2CC=C(C(=O)O)C2)CN(c2cc(F)cc(Cl)c2)C(=O)O1 (stereo not drawn) [Compound 160],"Foxtail, Green plant response rating","[1]; 16 g ai/ha, 0 to 100 scale",0
same,"Foxtail, Green plant response rating (0-100)",[1]; [28],0
same,"Oat, Wild plant response rating","[2]; 16 g ai/ha, 0 to 100 scale",0
same,"Oat, Wild plant response rating (0-100)",[2]; [28],0
same,"Ryegrass, Italian plant response rating","[3]; 16 g ai/ha, 0 to 100 scale",0
same,"Ryegrass, Italian plant response rating (0-100)",[3]; [28],0
same,Kochia plant response rating,"kochia (Bassia scoparia) [4]; 16 g ai/ha, 0 to 100 scale",0
same,Kochia plant response rating (0-100),kochia (Bassia scoparia) [4]; [28],0
same,Corn plant response rating,"corn (Zea mays) [5]; 16 g ai/ha, 0 to 100 scale",0
same,Corn plant response rating (0-100),corn (Zea mays) [5]; [28],0
same,Blackgrass plant response rating,"[6]; 16 g ai/ha, 0 to 100 scale",0
same,Blackgrass plant response rating (0-100),[6]; [28],0
same,Barnyardgrass plant response rating,"[7]; 16 g ai/ha, 0 to 100 scale",0
same,Barnyardgrass plant response rating (0-100),[7]; [28],0
same,Wheat plant response rating,"[8]; 16 g ai/ha, 0 to 100 scale",0
same,Wheat plant response rating (0-100),[8]; [28],0
same,Soybean plant response rating,"soybean (Glycine max) [9]; 16 g ai/ha, 0 to 100 scale",0
same,Soybean plant response rating (0-100),soybean (Glycine max) [9]; [28],0
same,Ragweed plant response rating,"[10]; 16 g ai/ha, 0 to 100 scale",0
same,Ragweed plant response rating (0-100),[10]; [28],0
same,"Pigweed, Palmer plant response rating","[11]; 16 g ai/ha, 0 to 100 scale",0
same,"Pigweed, Palmer plant response rating (0-100)",[11]; [28],0
same,"Foxtail, Green plant response rating (0-100)",[12]; [29],0
same,"Foxtail, Green plant response rating (0 to 100 scale)",[12]; [30],0
same,"Oat, Wild plant response rating (0-100)",[13]; [29],0
same,"Oat, Wild plant response rating (0 to 100 scale)",[13]; [30],0
same,"Ryegrass, Italian plant response rating (0-100)",[14]; [29],0
same,"Ryegrass, Italian plant response rating (0 to 100 scale)",[14]; [30],0
same,Kochia plant response rating (0-100),kochia (Bassia scoparia) [15]; [29],0
same,Kochia plant response rating (0 to 100 scale),kochia (Bassia scoparia) [15]; [30],0
same,Corn plant response rating (0-100),corn (Zea mays) [16]; [29],0
same,Corn plant response rating (0 to 100 scale),corn (Zea mays) [16]; [30],0
same,Horseweed plant response rating (0-100),[17]; [29],0
same,Horseweed plant response rating (0 to 100 scale),[17]; [30],0
same,Blackgrass plant response rating (0-100),[18]; [29],0
same,Blackgrass plant response rating (0 to 100 scale),[18]; [30],0
same,Barnyardgrass plant response rating (0-100),[19]; [29],0
same,Barnyardgrass plant response rating (0 to 100 scale),[19]; [30],0
same,Wheat plant response rating (0-100),[20]; [29],0
same,Wheat plant response rating (0 to 100 scale),[20]; [30],0
same,Soybean plant response rating (0-100),soybean (Glycine max) [21]; [29],0
same,Soybean plant response rating (0 to 100 scale),soybean (Glycine max) [21]; [30],0
same,Ragweed plant response rating (0-100),[22]; [29],0
same,Ragweed plant response rating (0 to 100 scale),[22]; [30],0
same,Galium plant response rating (0-100),[23],0
same,"Pigweed, Palmer plant response rating (0-100)",[24]; [29],0
same,"Pigweed, Palmer plant response rating (0 to 100 scale)",[24]; [30],0
same,"Plant response rating, Sedge, Umbrella (0 to 100 scale, 0 is no effect and 100 is complete control)",[25],25
same,"Plant response rating, Barnyardgrass (0 to 100 scale, 0 is no effect and 100 is complete control)",[26],0
same,"Plant response rating, Ducksalad (0 to 100 scale, 0 is no effect and 100 is complete control)",[27],55
same,"Plant response rating, Rice (0 to 100 scale, 0 is no effect and 100 is complete control)",rice (Oryza sativa),0
